≈ marks a conversion by molar mass, not a printed value. Read-outs that look alike come from different tables or passages of the source.
Legend:
[1] = Saturation solubility of DTX in the solution-filled reservoir; assay type: physicochemical; conditions: 40 mg/ml BSA solution in PBS inside the device reservoir, aqueous buffer, thermodynamic from solid; solid DTX dissolved by BSA solution in PBS inside the reservoir, 37° C.
Protocol: Step 8: The device was exposed to a 40 mg/ml bovine serum albumin (BSA, Sigma-Aldrich Canada Ltd., Ontario, Canada) solution in phosphate buffered saline (PBS) and incubated at 37° C. to increase the wet ability of the magnetic PDMS membrane and thus filling of the drug reservoir with water. The hydrophilic aperture walls results in surface-tension driven flow through the aperture and gradual filling of the reservoir with solution.

[2] = HPLC test of drug released after 8 months inside the device; assay type: physicochemical; conditions: HPLC after 8 months encapsulated inside the device
Protocol: The released drug from the device was tested with HPLC after 8 months that was encapsulated inside the device.

PC3 cells = experiment: PC3 cell viability (MTS assay); assay type: cell-based; conditions: for cell viability equilibrated: PC3 cells, 2 days incubation
Protocol: (§1) A prototype device was actuated at the desired number of actuations in 1% BSA solution. The released DTX was extracted in 1 ml DCM, as described previously. This mixture was dried down under nitrogen flow at 40° C. and was then reconstituted in either HUVEC and PC3 cell media to the original volume of 4 ml. Alternatively, fresh solutions of free DTX were prepared in various concentrations (2-250 nM) in acetonitrile, dried down under nitrogen flow at 40° C., and reconstituted in cell media.
PC3 and HUVEC cells were seeded in 96 well plates in their respective media at a concentration of 1500 cells per well. The cells were allowed to equilibrate for 2 days at which time they became approximately 50% confluent and were ready for drug incubation. Cells were incubated for 2 days at 37° C. with 200 μl of either freshly prepared solutions of DTX at various concentrations or with the drug solution released from the device under various number of device actuations. Cell viability was determined using a CellTiter 96 AQueous Non-Radioactive Cell Proliferation Assay (MTS assay, Promega Corporation, Madison, Wis.) and quantified by reading the absorbance at 492 nm minus the absorbance at 610 nm using a spectrometric plate reader. In both experiments, the values presented are for the averages of six replicas for each condition.
The biological activity of the DTX released from a device was investigated. This was achieved by incubating cells with the released drug in cell culture media and measuring the drug induced inhibition of proliferation in comparison to the inhibition caused by freshly made drug solutions. The device used for this study had been fabricated and left in BSA solution for two months (with an open aperture) prior to the experiment. The amount of DTX release during this period was estimated to be about 4.5 μg based on measured DTX diffusion rate. It was then actuated under a 255 mT magnetic field for different numbers of actuation cycles. The amounts of released drug were then experimentally interpolated from “number of actuations” to “drug concentrations”, using FIG. 4-a. […]

HUVECs = experiment: HUVEC viability (MTS assay); assay type: cell-based; conditions: 2 days incubation
Protocol: as §1
PC3 and HUVEC cells were seeded in 96 well plates in their respective media at a concentration of 1500 cells per well. The cells were allowed to equilibrate for 2 days at which time they became approximately 50% confluent and were ready for drug incubation. […] Cell viability was determined using a CellTiter 96 AQueous Non-Radioactive Cell Proliferation Assay (MTS assay, Promega Corporation, Madison, Wis.) and quantified by reading the absorbance at 492 nm minus the absorbance at 610 nm using a spectrometric plate reader. […]
The biological activity of the DTX released from a device was investigated. […] The amount of DTX release during this period was estimated to be about 4.5 μg based on measured DTX diffusion rate. […]

[3] = cited from earlier work
[4] = drug released from the device (255 mT, device kept two months in BSA solution)

SMILES	solubility [1] [µg/mL]	drug remained intact [2]	cell viability equilibrated (PC3 cells; [4])	cell viability equilibrated (PC3 cells; fresh free drug)	stability of DTX inside the PDMS MEMS device (PC3 cells; after two months, judged by antiproliferative effect)	cell viability equilibrated (HUVECs; [4])	cell viability equilibrated (HUVECs; fresh free drug)	solubility [3] [µg/mL]
CC(=O)O[C@@]12CO[C@@H]1C[C@H](O)[C@@]1(C)C(=O)[C@H](O)C3=C(C)[C@@H](OC(=O)[C@H](O)[C@@H](NC(=O)OC(C)(C)C)c4ccccc4)C[C@@](O)([C@@H](OC(=O)c4ccccc4)[C@H]21)C3(C)C [DTX, docetaxel]	~5 (≈ 0.00619 mM)	over 95%	about 34%	about 34%	does not degrade	about 24%	about 24%	–
CC(C)OC(=O)CCC/C=C\C[C@@H]1[C@@H](CC[C@@H](O)CCc2ccccc2)[C@H](O)C[C@@H]1O [latanoprost]	–	–	–	–	–	–	–	50000 (≈ 116 mM)
CC(C)(C)NC[C@H](O)COc1nsnc1N1CCOCC1 [timolol]	–	–	–	–	–	–	–	2500 (≈ 7.9 mM)
